Reference: patent US8822172B2, “Method of detecting isolevuglandin phospholipid adducts” (Case Western Reserve University, priority 2009, dated 2014)
Where two headings read alike, the source gives them in different places.

Columns and labels:
[1] = Cu^2+; cited from earlier work
[2] = Fe^3+; cited from earlier work
[3] = Ca2^+; cited from earlier work
[4] = tested on: TNF-α; details: long-term ethanol feeding; early peak at 2% d2, later peak at 5% wk 4
Source text: (§1) All procedures using animals were approved by the Cleveland Clinic Foundation Institutional Animal Care and Use Committees. Mice were housed in shoe-box cages (2 animals/cage) with microisolator lids. Standard microisolator handling procedures were used throughout the study. Mice were randomized into ethanol-fed and pair-fed groups and then adapted to control liquid diet for 2 days. The ethanol-fed group was allowed free access to ethanol containing diet with increasing concentrations of ethanol: 1% (vol/vol) and 2% each for 2 days, then 4% ethanol for 7 d, and finally 5% ethanol for a further 4 weeks. For the dose-response experiment, mice were allowed free access to 1% ethanol for 2 days and then 2%, 4% or 6% ethanol for a further 2 days. Control mice were pair-fed diets which iso-calorically substituted maltose dextrins for ethanol over the entire feeding period. Mice were then anesthetized, blood samples taken into non-heparinized syringes from the posterior vena cava, livers blanched with saline via the portal vein and then excised. Portions of each liver were then either fixed in formalin or frozen in optimal cutting temperature (OCT) compound (Sakura Finetek U.S.A., Inc., Torrance Calif.) for histology, frozen in RNAlater (Qiagen, Valencia, Calif.) or flash frozen in liquid nitrogen and stored at −80° C. until further analysis. […]

[5] = tested on: mouse liver; details: short-term model of ethanol exposure, 2, 4 or 6% for 2 days
Source text: as §1

[6] = tested on: mouse liver; details: chronic ethanol-fed vs pair-fed mice, P=0.00021
Method: The tissue was homogenized manually using a Teflon-coated stainless steel pestle. After homogenization, the resulting mixture was placed in a 4° C. freezer for 30 min to maximize the lipid extraction efficiency. An aqueous solution of sodium chloride (1.5%, w/w, 1/4 the volume of the organic extract) was added. The resulting mixture was centrifuged at 3000 rpm for 15 min. The lower layer containing the lipids was carefully withdrawn with a polyethylene transfer pipette, making sure to avoid the interface or upper layer. The solvents were then evaporated under a stream of dry argon at room temperature, and the sample was stored under argon at −80° C. before being analyzed using LC-MS/MS.
The resulting mixture was sonicated for 5 min followed by the addition of PLA2 enzyme (50 μl of 10,000 units/ml). […]
Direct infusion MS and LC-MS/MS were performed on a Quattro Ultima triple-quadrupole mass spectrometer (Micromass, Wythenshawe, UK). […] The total ion current was measured in the mass-to-charge ratio (m/z) range of 50-900 at 30 V of cone energy in the negative ion mode with a 3.5-kV electrospray capillary voltage, 60-V cone voltage, 120° C. source temperature, 250° C. desolvation temperature, 65 L/h cone gas flow, and 658 L/h desolvation gas flow. […] All retention times of analytes shown in MRM spectra were recorded relative to the internal standard (iso[4]LGE2-D31-lysoPE-HL, 11.83 min). […]

[7] = tested on: mouse liver; details: chronic ethanol-fed mouse liver (5% wk 4), ELISA and LC/MS
Source text: Mice were housed in shoe-box cages (2 animals/cage) with microisolator lids. Standard microisolator handling procedures were used throughout the study. […] Mice were then anesthetized, blood samples taken into non-heparinized syringes from the posterior vena cava, livers blanched with saline via the portal vein and then excised. Portions of each liver were then either fixed in formalin or frozen in optimal cutting temperature (OCT) compound (Sakura Finetek U.S.A., Inc., Torrance Calif.) for histology, frozen in RNAlater (Qiagen, Valencia, Calif.) or flash frozen in liquid nitrogen and stored at −80° C. until further analysis. Blood was transferred to heparin-containing tubes for the isolation of plasma. Plasma was then stored at −80° C.
Liver homogenates were prepared as described except that 50 μM butylated hydroxytoluene (BHT) and 100 μM diethylenetriamine pentaacetic acid (DTPA) were added to the buffer to prevent aerial oxidation of lipids during homogenization. 50 μg of protein was used in the ELISA.

[8] = tested on: plasma ALT; details: short-term model, 2, 4 or 6% ethanol diet for 2 days
Source text: (§2) All procedures using animals were approved by the Cleveland Clinic Foundation Institutional Animal Care and Use Committees. Mice were housed in shoe-box cages (2 animals/cage) with microisolator lids. Standard microisolator handling procedures were used throughout the study. […] Mice were then anesthetized, blood samples taken into non-heparinized syringes from the posterior vena cava, livers blanched with saline via the portal vein and then excised. Portions of each liver were then either fixed in formalin or frozen in optimal cutting temperature (OCT) compound (Sakura Finetek U.S.A., Inc., Torrance Calif.) for histology, frozen in RNAlater (Qiagen, Valencia, Calif.) or flash frozen in liquid nitrogen and stored at −80° C. until further analysis. Blood was transferred to heparin-containing tubes for the isolation of plasma. Plasma was then stored at −80° C.
Plasma samples were assayed for alanine aminotransferase (ALT) using a commercially available enzymatic assay kit (Diagnostic Chemicals, LTD, Oxford, Conn.) following the manufacturer's instructions.

[9] = tested on: hepatic triglycerides; details: short-term model, 2, 4 or 6% ethanol diet for 2 days
Source text: as §2
Formalin-fixed tissues were paraffin embedded, sectioned and stained with hematoxylin and eosin. Sections were coded prior to analysis and examined by two independent individuals. For Oil Red O staining, 10 micron sections were cut from frozen OCT samples and affixed to a microscope slide. Slides were then stored at 4° C. until staining. […] Total liver triglycerides were measured using the Triglyceride Reagent Kit from Pointe Scientific Inc. (Lincoln Park, Mich.).

[10] = tested on: CYP2E1; details: chronic ethanol feeding, maximum at 5% wk 2
Source text: All procedures using animals were approved by the Cleveland Clinic Foundation Institutional Animal Care and Use Committees. Mice were housed in shoe-box cages (2 animals/cage) with microisolator lids. Standard microisolator handling procedures were used throughout the study. […] Mice were then anesthetized, blood samples taken into non-heparinized syringes from the posterior vena cava, livers blanched with saline via the portal vein and then excised. Portions of each liver were then either fixed in formalin or frozen in optimal cutting temperature (OCT) compound (Sakura Finetek U.S.A., Inc., Torrance Calif.) for histology, frozen in RNAlater (Qiagen, Valencia, Calif.) or flash frozen in liquid nitrogen and stored at −80° C. until further analysis. […]
0.5-1.0 g of frozen liver tissue was homogenized in 10 ml/g tissue in lysis buffer (50 mM Tris-HCl, pH7.4, 1% NP-40, 0.25% Na-deoxycholate, 150 mM NaCl, 1 mM EDTA with added protease inhibitors Complete™ (Roche Diagnostics, Mannheim, Germany), 17.5 μg/ml aprotinin, 5 μg/ml bestatin, 10 μg/ml leupeptin, 1 mg/ml bacitracin, and 20 μg/ml E64) and phosphatase inhibitors (1 mM vanadate and 10 mM Na pyrophosphate)) using 15 strokes in a glass on glass homogenizer (loose pestle). […] Protein concentrations were measured. […] Bound antibody was detected by chemiluminescence. Immunoreactive protein quantity was assessed by scanning densitometry.

Q: Which “stability constant log K of EDTA complex” value [1] does the source give for O=C(O)CN(CCN(CC(=O)O)CC(=O)O)CC(=O)O [EDTA, ethylenediaminetetraacetic acid] here?
A: 18.8

Q: And the “stability constant log K of EDTA complex” value [2]?
A: 25.1

Q: And the “stability constant log K of EDTA complex” value [3]?
A: 10.7

Q: Which “TNF-α in mouse liver” value [4] does the source give for CCO [ethanol] here?
A: biphasic induction

Q: And the “4-HNE, LGE2 and iso[4]LGE2-protein adducts in liver” value [5]?
A: increased only at 6% ethanol feeding

Q: And the “isoLG-lysoPE-HL liver levels compared to pair-fed mice” value [6]?
A: Twofold higher

Q: What about the “adducts of iso[4]LGE2 in liver compared to pair-fed animals” value [7] of the same molecule?
A: 2 fold

Q: What about the “plasma ALT” value [8] of the same molecule?
A: increased at 4 and 6%

Q: What about the hepatic triglycerides [9] of the same molecule?
A: increased at 4 and 6%

Q: What about the “hepatic CYP2E1 expression” value [10] of the same molecule?
A: increased over time
